The results in this text go back to patent US8263060B2, “Fast degrading polymers” (Rutgers, The State University of New Jersey, priority 2005, dated 2012).

Values after ≈ are worked out from the molar mass of the structure shown.

A short description of this series: Solubility in PBS degradation media. The series is classed as physicochemical. To be noted: aqueous buffer.

Usually solubility stands for how much of the substance goes into solution per volume. `COc1cc(C(=O)O)cc(OC)c1O` [syringic acid] returned a solubility of 56 mg/mL (≈ 283 mM).
